{"source": "paper PMC7211193", "about": "“Evaluation of absorption, distribution, metabolism, and excretion of [^14C]-rucaparib, a poly(ADP-ribose) polymerase inhibitor, in patients with advanced solid tumors” (Investigational New Drugs, 2019)", "key": {"[1]": {"experiment": "Metabolite profiling in pooled urine (LC-MS-Radiomatic)", "type": "in vivo, human", "settings": "for % Dose in urine: pooled urine, % of administered dose", "method": "For each patient, urine samples from different collection intervals were pooled in proportion to their sample weight in order to obtain a pooled sample covering 90% of the TRA in urine. Pooled urine samples were lyophilized and then extracted at least twice with acetonitrile. The obtained supernatant was evaporated to dryness, and the dried residues were reconstituted in 20% acetonitrile in water containing 0.1% TFA. An aliquot of the supernatant was analyzed for TRA to determine extraction efficiency, and the mean recovery was ≈70%. Aliquots of the supernatants were injected into the HPLC coupled to UV and radioactive detectors to obtain metabolite profiles. The samples were also analyzed using LC-MS for metabolite identification.\n(§1) Metabolite profiling and identification were performed on an LC system (Agilent) coupled to an LTQ Orbitrap mass spectrometer (Thermo Electron, Waltham, MA, USA) in combination with offline TopCount (LC-MS-TopCount) or online Radiomatic 625TR (LC-MS-Radiomatic; PerkinElmer). Proposed structures of the metabolites were based on accurate mass (<5 ppm) and comparison of mass spectral data of parent compound rucaparib and metabolite standard M324. The Radiomatic 625TR flow detector, equipped with a 200 μL flow cell, was operated using scintillation cocktail (Ultima-Flo M) delivered at a flow rate of 1 mL/min. Chromatography was done using a Phenomenex (Torrance, CA, USA) Luna Phenyl-Hexyl column (250 × 2 mm, 5 μm, 100 Å) at ambient temperature during the sample analysis. The mobile phase was (A) 0.05% TFA in water and (B) 0.05% TFA in acetonitrile, with a 0.2 mL/min flow rate. The gradient was as follows: 5% B over 2.1 min, to 20% B in 1.0 min, to 35% B in 16.9 min, isocratic at 35% B for 5 min, to 95% B over 5 min, and reduced to 5% B over 1 min, with total run time 45 min.\n(§2) The abundance of unchanged rucaparib and metabolites identified in plasma, urine, and feces was determined as a percentage of the TRA in the analyzed samples. Percentage of the administered dose of rucaparib and metabolites was calculated in urine and feces (formula A). The concentration of rucaparib and its metabolites in plasma (ng Eq h/mL) was calculated based on the specific activity, TRA, and percentage of peaks (formula B). The AUC0-24h value of rucaparib and its major metabolite M324 in plasma was calculated using both Hamilton method (formula C) and linear trapezoidal method (formula D). • (A) %Doseofmetabolite=TRAinurineorfeces(dpm)÷TRAinadministereddose(dpm)×%metabolitesinmatrix • (B) Metaboliteconcentrationsinplasma(ngEq/mL)=TRAinplasma(dpm/mL)specificactivity(ngEq/dpm)×%metabolitesinthematrix • (C) Hamiltonmethod:AUC0−24h(ngEqh/mL)=concentrationinHamilton(AUC0−24h)pooledplasma(ngEq/mL)×24(h) • (D) Lineartrapezoidalmethod:AUC0−24h(ngEqh/mL)=C1h/2×1h+C1h+C4h/2×(4h−1h)+C4h+C8h/2×(8h−4h)+C8h+C24h/2×(24h−8h)"}, "[2]": {"settings": "cited from earlier work"}, "[3]": {"experiment": "Metabolite profiling in plasma (LC-MS-TopCount)", "type": "in vivo, human", "method": "Plasma samples from six patients were pooled using two methods: (1) A Hamilton pool plasma (0–24 h) for metabolite profile determination was prepared by combining plasma aliquots of a volume proportional to the time interval used for calculating the AUC (AUC0-24h pool) for each patient and (2) four time-point pooling samples were obtained by equal volume pool at 1, 4, 8, and 24 h across six patients. In addition, plasma samples at 1, 8, and 24 h were selected from three patients (Patients 03, 08, and 09) for metabolite profiles analysis to check the individual differences between patients. Samples collected after 24 h post dose were not included in the pooling due to the low radioactivity at later time points. All plasma samples (pooled and from individuals) were extracted at least two times with acetonitrile. All supernatants were evaporated to dryness, and the dried residues were reconstituted in 20% acetonitrile in water containing 0.1% TFA. The sample recovery was obtained by comparing the radioactivity concentrations before and after extraction, and the mean recovery was about 70%.\nAliquots of the supernatants were injected into the HPLC, and the HPLC elutes were collected as fractions at intervals of 30 sec per well into LumaPlate-96 DeepWell microplates (PerkinElmer). Due to the low radioactivity in each plasma sample, metabolite profiles were obtained by TopCount (PerkinElmer) analysis of HPLC elutes. The fractions were dried at room temperature, and then analyzed by a TopCount NXT radiometric microplate reader (PerkinElmer) to obtain metabolite profiles. The supernatants of extracts were also analyzed using an LC-MS method to identify metabolites.\nas §1, §2"}, "[4]": {"settings": "single oral 600 mg, versus fasted"}, "[5]": {"settings": "0-24 h pooled plasma, N = 6, mean ± SD"}}, "note": "“And” between values parts separate entries of the source, which are not always exact repeats. Equal values may be shown once.", "data": [{"smiles": "CNCc1ccc(-c2[nH]c3cc(F)cc4c3c2CCNC4=O)cc1", "note": "[Rucaparib, rucaparib]", "values": [{"measurement": "% of dose in pooled urine, Patient 01", "setting": "[1]; Patient 01", "value": 14.3, "unit": "% dose"}, {"measurement": "% of dose in pooled urine, Patient 03", "setting": "[1]; Patient 03", "value": 5.03, "unit": "% dose"}, {"measurement": "% of dose in pooled urine, Patient 05", "setting": "[1]; Patient 05", "value": 2.85, "unit": "% dose"}, {"measurement": "% of dose in pooled urine, Patient 06", "setting": "[1]; Patient 06", "value": 5.96, "unit": "% dose"}, {"measurement": "% of dose in pooled urine, Patient 08", "setting": "[1]; Patient 08", "value": 10.7, "unit": "% dose"}, {"measurement": "% of dose in pooled urine, Patient 09", "setting": "[1]; Patient 09", "value": 6.77, "unit": "% dose"}, {"measurement": "% Peak (of TRA) in urine", "setting": "[1]; pooled urine covering 90% of urine radioactivity, N = 6, mean ± SD", "value": "44.9 ± 15.6", "unit": "%"}, {"measurement": "% Dose in urine", "setting": "[1]; N = 6, mean ± SD", "value": "7.59 ± 4.16", "unit": "%"}, {"measurement": "% Dose in urine", "setting": "[1]; N = 6, mean ± SD, listed as rucaparib", "value": "≈ 7.6% and > 7%"}, {"measurement": "Accumulation at steady state", "setting": "[2]; 600 mg BID", "value": "approximately four-fold"}, {"measurement": "Time of dosing to achieve steady state", "setting": "[2]; 600 mg BID", "value": 1, "unit": "week"}, {"measurement": "Dose proportionality of plasma exposure", "setting": "[2]; 40–500 mg QD and 240–840 mg BID", "value": "dose proportional"}, {"measurement": "Median tmax, QD dosing", "setting": "[2]; 40–500 mg once daily, Study 10", "value": "1.5 to 6.0", "unit": "h"}, {"measurement": "Median tmax, BID dosing", "setting": "[2]; 240–840 mg twice daily, Study 10", "value": "1.5 to 4.0", "unit": "h"}, {"measurement": "Apparent steady-state clearance, BID dosing", "setting": "[2]; Study 10", "value": "26.2 to 58.6", "unit": "L/h"}, {"measurement": "Apparent steady-state clearance, QD dosing", "setting": "[2]; Study 10", "value": "26.7 to 47.5", "unit": "L/h"}, {"measurement": "Increase of AUC by a high-fat meal", "setting": "[2]; [4]", "value": 38, "unit": "%"}, {"measurement": "Increase of Cmax by a high-fat meal", "setting": "[2]; [4]", "value": 20, "unit": "%"}, {"measurement": "t1/2 in a previous clinical trial", "setting": "[2]; single oral dose, dose range 40–500 mg", "value": "11 to 29.8", "unit": "h"}, {"measurement": "% Peak (of plasma radioactivity), Hamilton (AUC0-24h) pooled plasma", "setting": "[3]; [5]", "value": "64.0 ± 13.7", "unit": "%"}, {"measurement": "Concentration, Hamilton (AUC0-24h) pooled plasma", "setting": "[3]; [5]", "value": "335 ± 120", "unit": "ng Eq/mL"}, {"measurement": "% Peak (of plasma radioactivity), Hamilton (AUC0-24h) pooled plasma", "setting": "[3]; 0-24 h pooled plasma, N = 6, mean ± SD, listed as rucaparib", "value": "64.0% and ≈ 64%"}, {"measurement": "% Radioactive peaks in individual plasma, Patient 03, 1 h", "setting": "[3]; Patient 03, 1 h", "value": 75.0, "unit": "%"}, {"measurement": "% Radioactive peaks in individual plasma, Patient 03, 8 h", "setting": "[3]; Patient 03, 8 h", "value": 66.7, "unit": "%"}, {"measurement": "% Radioactive peaks in individual plasma, Patient 03, 24 h", "setting": "[3]; Patient 03, 24 h", "value": 36.1, "unit": "%"}, {"measurement": "% Radioactive peaks in individual plasma, Patient 08, 1 h", "setting": "[3]; Patient 08, 1 h", "value": 92.1, "unit": "%"}, {"measurement": "% Radioactive peaks in individual plasma, Patient 08, 8 h", "setting": "[3]; Patient 08, 8 h", "value": 68.2, "unit": "%"}, {"measurement": "% Radioactive peaks in individual plasma, Patient 08, 24 h", "setting": "[3]; Patient 08, 24 h", "value": 38.5, "unit": "%"}, {"measurement": "% Radioactive peaks in individual plasma, Patient 09, 1 h", "setting": "[3]; Patient 09, 1 h", "value": 84.6, "unit": "%"}, {"measurement": "% Radioactive peaks in individual plasma, Patient 09, 8 h", "setting": "[3]; Patient 09, 8 h", "value": 82.1, "unit": "%"}, {"measurement": "% Radioactive peaks in individual plasma, Patient 09, 24 h", "setting": "[3]; Patient 09, 24 h", "value": 56.5, "unit": "%"}, {"measurement": "% Radioactive peaks in individual plasma, Mean ± SD, 1 h", "setting": "[3]; Patients 03, 08, 09, 1 h", "value": "83.9 ± 8.57", "unit": "%"}, {"measurement": "% Radioactive peaks in individual plasma, Mean ± SD, 8 h", "setting": "[3]; Patients 03, 08, 09, 8 h", "value": "72.3 ± 8.49", "unit": "%"}, {"measurement": "% Radioactive peaks in individual plasma, Mean ± SD, 24 h", "setting": "[3]; Patients 03, 08, 09, 24 h", "value": "43.7 ± 11.1", "unit": "%"}, {"measurement": "AUC0-24h, Hamilton (AUC0-24h) pooled plasma", "setting": "[3]; concentration in 0-24-h pooled sample × 24 h", "value": 8040, "unit": "ng Eq h/mL"}, {"measurement": "concentration at 1 h", "setting": "[3]; human, plasma, oral, 600 mg, single pooled sample from all six patients, 1 h, read-out: Mean concentration, time point pooled plasma, 1 h", "value": 317, "unit": "ng/mL"}, {"measurement": "concentration at 4 h", "setting": "[3]; human, plasma, oral, 600 mg, single pooled sample from all six patients, 4 h, read-out: Mean concentration, time point pooled plasma, 4 h", "value": 590, "unit": "ng/mL"}, {"measurement": "concentration at 8 h", "setting": "[3]; human, plasma, oral, 600 mg, single pooled sample from all six patients, 8 h, read-out: Mean concentration, time point pooled plasma, 8 h", "value": 545, "unit": "ng/mL"}, {"measurement": "concentration at 24 h", "setting": "[3]; human, plasma, oral, 600 mg, single pooled sample from all six patients, 24 h, read-out: Mean concentration, time point pooled plasma, 24 h", "value": 151, "unit": "ng/mL"}, {"measurement": "Mean AUC0-24h, time point pooled plasma", "setting": "[3]; trapezoidal method from 1, 4, 8, 24 h pools", "value": 9360, "unit": "ng Eq h/mL"}]}]}
